The subject of one series is CREB signaling in VMH. Put plainly: CREB phosphorylation in hypothalamus (VMH) after injection. In kind it is in vivo, mouse. Here is the method:
FIG. 28. (A) Western blot analysis of HTR2C and p-CREB in hypothalamus tissue from 12-week-old mice after PGE2 or vehicle injection at different periods. […] DAPI stains nuclei blue. Scale bar, 50 μm.
The femurs were collected and fixed in 4% paraformaldehyde overnight and decalcified by using 10% EDTA (pH, 7.4) (Amresco, 0105) for 21 days. The samples were then dehydrated with 30% sucrose for 24 h and embedded in paraffin or optimal cutting temperature compound (Sakura Finetek). 4-μm-thick coronal-oriented sections of the femur were prepared for hematoxylin and eosin staining. The femurs were fixed for 4 h with 4% paraformaldehyde at 4° C. and then decalcified at 4° C. using 0.5M EDTA (pH, 7.4) for 24 h with constant shaking. The samples were dehydrated in 20% sucrose and 2% polyvinylpyrrolidone (PVP) solution for 24 h and embedded in 8% gelatin (Sigma-Aldrich, G1890) in the presence of 20% sucrose and 2% PVP. Forty-μm-thick coronal-oriented sections of the femurs were obtained.

Series [1] deals with EP4 in the sensory nerves (Mus musculus, UniProt P32240). As to the kind of experiment: PGE2-induced bone formation, trichrome and calcein double labeling. In kind it is in vivo. The note with it: wild-type mice; 3 mg per kg per day PGE2 for 3 consecutive days. On the procedure:
(§1) FIG. 9. […] DAPI stains nuclei blue. […] Calcein was injected 5 days and 1 day before sacrifice. Representative images of calcein double labeling of femoral trabecular bone with quantification of mineral apposition rate (MAR) and bone formation rate (BFR). Scale bar, 20 μm. […] (Student t-test, except j with ANOVA)
(§2) As EP4 expression is also known to express in osteoblasts, osteoblastic cell-specific knockout EP4 mice were generated by crossing […] mice with osteocalcin-cre (OC-cre) mice (FIG. 12A).
(§3) A double-labeling procedure was performed to measure dynamic bone formation. Briefly, 0.1% calcein (Sigma-Aldrich, C0875) was injected in phosphate-buffered saline at a concentration of 10mg per kg into the mice subcutaneously 7 days and 1 day before sacrifice. The double-labeling images of undecalcified bone slices were captured using a fluorescence microscope. Trabecular bone formation in four randomly selected visual fields was analyzed in the distal metaphyseal area of the femur.

In series [2] the test system is EP4 in the sensory nerves. Described as above. It is filed as in vivo, mouse. The note with it: EP4Avil−/− mice; 3 mg per kg per day PGE2 for 3 consecutive days. On the procedure:
as §1, §2, §3

Another series concerns DRG neurons. As to the kind of experiment: Calcium imaging of isolated DRG neurons. The note with it: DRG neurons pre-incubated with 10 μM PGE2 for 5 min, relative to vehicle-treated neurons.
Series [3] concerns the target T1, 15-PGDH (Mus musculus, UniProt Q8VCC1).
T1 sequence (Q8VCC1 1-269): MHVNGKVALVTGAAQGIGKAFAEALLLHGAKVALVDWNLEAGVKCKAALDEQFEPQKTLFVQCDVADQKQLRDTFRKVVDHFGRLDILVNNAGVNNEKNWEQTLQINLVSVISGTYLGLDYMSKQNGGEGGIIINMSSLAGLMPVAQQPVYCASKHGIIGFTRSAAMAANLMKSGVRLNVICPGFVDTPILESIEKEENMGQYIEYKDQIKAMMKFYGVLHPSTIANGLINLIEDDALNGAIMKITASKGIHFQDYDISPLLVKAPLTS
Put plainly: Bone regeneration after femoral bone marrow ablation. It is filed as in vivo. The source says:
FIG. 31. […] Scale bar: 1 mm. Selected areas for the measurements of bone volume (BV)/tissue volume (TV) were indicated with a yellow square. b Representative images of hematoxylin-eosin staining, double immunofluorescence analysis of CD31^+ Emcn^+ cells, and immunofluorescence analysis of Leptin receptor (LepR)^+ cells in the regeneration area. Scale bar, 100 μm. c Graphic illustration of this study. When bone density decreases by osteoclast bone resorption, PGE2 secretion by osteoblastic cells increases at bone remodeling sites. PGE2 activates EP4 receptor at sensory nerve to tune down sympathetic tones for osteoblast differentiation at the bone remodeling microenvironment. The sensory nerve controlling process is likely a temporal-spatial precision action. […] (ANOVA)
PGE2 has been reported recently to potentiate regeneration of multiple tissues (see, Zhang, Y. et al. Science 348, aaa2340, doi:10.1126/science.aaa2340 (2015)). To investigate whether PGE2 induces tissue regeneration through sensory nerves, experiments were conducted that assessed whether PGE2 induces bone regeneration. […] However, the regeneration of trabecular bone by SW033291 was obstructed in EP4Avil^−/− mice (FIG. 31A, B). […] Thus, PGE2 stimulates bone regeneration through sensory nerves.
The femurs were harvested from mice, and the soft tissue around the bone was removed, followed by fixation overnight using 4% paraformaldehyde. μCT analyses were performed by using a high-resolution μCT scanner (SkyScan, 1174). The voltage of the scanning procedure was 65 kv with a 153-μA current. The resolution was set to 8.7 μm per pixel. Reconstruction software (NRecon, v1.6, SkyScan), data analysis software (CTAn, v1.9, SkyScan), and 3D model visualization software (CTVol, v2.0, SkyScan) were used to analyze the diaphyseal cortical bone and the metaphyseal trabecular bone parameters of the femurs. Experiments were conducted that created cross-sectional images of the femur to perform 2D analyses of the cortical bone and 3D analyses of the trabecular bone. The region of interest (ROI) of the trabecular bone was drawn beginning from 5% of the femur length proximal to the distal metaphyseal growth plate and extending proximally for another 5% of the total femur length. The trabecular bone volume fraction (BV/TV), trabecular thickness (Tb. Th), trabecular number (Tb. N), and trabecular separation (Tb. Sp) were collected from the 3D analyses data and used to represent the trabecular bone parameters. The cortical bone ROI was drawn beginning from 20% of femur length proximal to distal metaphyseal growth plate and extending proximally to another 10% of the total femur length. […]

Series [4] addresses T1, 15-PGDH. As to the kind of experiment: Liver regeneration after partial hepatectomy. It is filed as in vivo. The following applies: TrkAAvil−/− mice treated with SW033291 relative to WT littermates. The source says: FIG. 32. (A) Double-immunofluorescence images of liver tissue sections from TrkA^wt and TrkAAvil^−/− mice with vehicle or SW033291 treatment using antibodies against and Ki67 (red) and CGRP (green). DAPI stains nuclei blue. Percentages of the Ki67+cells are shown in the right panel. Scale bar, 100 μm.(B) BrdU staining images of liver tissue sections from TrkA^wt and TrkAAvil^−/− mice with vehicle or SW033291 treatment. Scale bar, […]. Percentages of the BrdU+cells are shown in the right panel. […] (ANOVA).
To further investigate whether PGE2 induces regeneration by sensory nerves of tissues other than bone, experiments were conducted that performed partial hepatectomy in TrkAAvil^−/− mice and their WT littermates treated with SW033291 or vehicle.
Partial hepatectomy was used for the liver regeneration model. 10- to 12-week-old […] male mice were anesthetized, as described above. A partial (two-thirds) hepatectomy was performed by resecting the median and left lateral hepatic lobes^54. The remnant livers were harvested after mice sacrifice. SW033291 was dissolved in a vehicle of 10% ethanol, 5% Cremophor EL, and 85% dextrose 5% in water.

Series [5] relates to sensory nerves of iDTRAvil mice. The note with it: mouse, in vivo.

EP4 in the sensory nerves (Mus musculus, UniProt P32240), sequence (P32240 whole entry): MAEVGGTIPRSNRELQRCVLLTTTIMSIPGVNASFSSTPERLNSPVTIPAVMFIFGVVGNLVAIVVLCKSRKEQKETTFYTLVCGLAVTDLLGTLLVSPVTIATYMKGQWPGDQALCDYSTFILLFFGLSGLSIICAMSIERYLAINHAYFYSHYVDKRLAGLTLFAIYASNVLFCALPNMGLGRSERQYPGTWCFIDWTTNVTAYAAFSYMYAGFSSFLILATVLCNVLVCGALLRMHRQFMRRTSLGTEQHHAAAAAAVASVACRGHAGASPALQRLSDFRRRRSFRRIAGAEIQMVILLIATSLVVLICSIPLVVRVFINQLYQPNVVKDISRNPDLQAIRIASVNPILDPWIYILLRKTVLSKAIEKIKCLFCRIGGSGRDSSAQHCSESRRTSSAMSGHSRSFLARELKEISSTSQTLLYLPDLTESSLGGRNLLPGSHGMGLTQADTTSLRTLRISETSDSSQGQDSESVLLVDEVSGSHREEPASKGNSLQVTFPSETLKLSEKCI

In the case of `O=C(O)CCC/C=C\C[C@H]1C(=O)C[C@@H](O)[C@@H]1/C=C/[C@@H](O)CCc1ccccc1` [EP1/3 agonist], the “phosphorylation of CREB (pCREB level) in VMH” value with CREB signaling in VMH (C57BL/6 mice, agonist 200 ug per kg, 6 hours, relative to vehicle-treated mice) was “did not increase”.

For the molecule `CCCCC[C@H](O)/C=C/[C@H]1[C@H](O)CC(=O)[C@@H]1C/C=C\CCCC(=O)O` [PGE2, prostaglandin E2], the “bone formation (trichrome, calcein double labeling: MAR, BFR)” value in series [1] is recorded as “significant bone formation”; in series [2], “abolished”. For the same molecule, the “activated (illuminated) DRG neurons, calcium imaging” value with DRG neurons was “more illuminated DRG neurons”. Besides, the “phosphorylation of CREB in hypothalamus, Western blot time course” value in the series with CREB signaling in VMH (12-week-old mice after PGE2 injection) is recorded as “increased gradually”. For the same molecule, the “PGE2-induced CREB phosphorylation in VMH, immunostaining” value in the series with CREB signaling in VMH (EP4Avil−/− mice, 3 mg per kg PGE2, 6 h) is reported as “abolished”. In addition, the “CREB phosphorylation in VMH, immunostaining” value with CREB signaling in VMH (WT (EP4wt) mice, 3 mg per kg PGE2, 6 h after injection) was “increased significantly”. Besides, the “time of peak phosphorylation of CREB in hypothalamus” value with CREB signaling in VMH (Western blot, after PGE2 injection) was determined as 6 h.

In the case of `CCCC[S+]([O-])c1sc2nc(-c3cccs3)cc(-c3ccccc3)c2c1N` (stereo not shown) [SW033291], at 15-PGDH [3] (EP4Avil−/− mice with or without injection of SW033291), the “type H vessels in the regeneration area” value is “almost undetectable”. At 15-PGDH [3] (EP4Avil−/− mice, 10 mg per kg per day SW033291), the “regeneration of trabecular bone” value is recorded as “obstructed”. In addition, the “type H vessel (CD31hi Endomucinhi) growth in the regeneration area” value on 15-PGDH [3] (EP4wt mice treated with SW033291) is on record as “significantly increased”. In addition, on 15-PGDH [3] (EP4wt mice, 10 mg per kg per day SW033291, relative to vehicle-treated controls), the “trabecular bone regeneration (μCT, HE staining)” value is “boosted trabecular bone regeneration significantly”. At 15-PGDH [4], the “liver regeneration rate (BrdU and Ki67 staining)” value is on record as “decreased significantly”.

Consider diphtheria toxin [DTX], for which, in series [5], the “Sensory denervation (CGRP+ sensory nerves in femur)” value was “effectively induced”; the amount of osteoid result was “significantly decreased”; the “bone formation (calcein double-labeling)” value is recorded as “reduced”; the “bone loss (μCT, femur)” value was “Significant bone loss”. Besides, in series [5], the “bone mass in the vertebrae” value is reported as “decreased”; the “mineral apposition rate (calcein double-labeling)” value is recorded as “reduced”; the “motor neural activity (pole tests and grip strength tests)” value is “No motor neural activity was influenced”; the number of osteoblasts result was “significantly decreased”. Further, in series [5], the number of osteoclasts entry was “unchanged”, the “sensory innervations in the vertebrae” value was “decreased”, the “serum CTX level” value is listed as “unchanged” and the serum osteocalcin level entry is given as “significantly decreased”.

Values taken from patent US20210346328A1, “COMPOSITIONS AND METHODS FOR TREATING METABOLIC DISORDERS” (The Johns Hopkins University, priority 2018, published 2021).
